The values that follow come from patent publication US20090202430A1, “COMPOSITION FOR CYTOCOMPATIBLE, INJECTABLE, SELF-GELLING POLYSACCHARIDE SOLUTIONS FOR ENCAPSULATING AND DELIVERING LIVE CELLS OR BIOLOGICALLY ACTIVE FACTORS” (BIO SYNTECH CANADA INC., priority 2002, published 2009).

For one data set, the system named is encapsulated cells. Description: MTT assay (live cell metabolism) and Hoechst DNA assay (cell proliferation) of cells in cross-linked chitosan gels (FIG. 4B). Format: cell-based. To be noted: MTT and Hoechst DNA assays, after encapsulation. The source says: In FIG. 4B, as shown by MTT assay on day 1 encapsulated cells, hydroxyethyl cellulose offers additional protection to cells immediately post-encapsulation.

The subject of a further data set is cells. Description: Viability of cells maintained in cross-linker solution (FIG. 4A). Format: cell-based. To be noted: cells incubated in 0.3% peroxide for the same time period (up to 72 hours). The method, then: FIG. 4A illustrates viability of cells maintained in hydroxyethyl cellulose, or glyoxal cross-linker for over an hour;
In FIG. 4A, high viability is maintained after encapsulation in cross-linked chitosan with glyoxal, or hydroxyethyl cellulose-glyoxal. FIG. 4A illustrates that the active hydroxyethyl cellulose-cross linker is cytocompatible. Cells incubated up to 72 hours in active cross-linker remain over 95% viable. Cells incubated in 0.3% peroxide for the same time period are 100% non-viable. After mixing with chitosan and injecting through a syringe with a 26-gauge needle, encapsulated cells in solid gel remain over 95% viable. After mixing with chitosan and pouring into a petri, encapsulated cells in solid gel remain over 95% viable after 1 day of culture.

`O=CC=O` [glyoxal]: the “viability and proliferation of cells encapsulated in chitosan gel” value with encapsulated cells was “viable after encapsulation and proliferate in the gel”. Take `OO` [peroxide]: the non-viable cells in the data set with cells was 100%.
